For 13 molecules, EC50 and CC50 results are on record in patent publication US20220370451A1, “INHIBITORS OF HUMAN IMMUNODEFICIENCY VIRUS REPLICATION” (VIIV HEALTHCARE UK ( No. 5) LIMITED, priority 2019, published 2022).

Bounds are passed on as bounds.

One data set concerns recombinant NL4-3 virus. The data set is described as follows: HIV cell culture assay (luciferase reporter antiviral activity). The note with it: Human immunodeficiency virus 1, NL43, MT2. Format: cell-based. The protocol: HIV cell culture assay—MT=2 cells, 293T cells and the proviral DNA clone of NL4-3 virus were obtained from the NIH AIDS Research and Reference Reagent Program. MT=2 cells were propagated in RPMI 1640 media supplemented with 10% heat inactivated fetal bovine serum (FBS), […] penicillin G and up to 100 units/mL streptomycin. The 293T cells were propagated in DMEM media supplemented with 10% heat inactivated FBS, […] penicillin G and […] streptomycin. A recombinant NL4-3 proviral clone, in which a section of the nef gene was replaced with the Renilla luciferase gene, was used to make the reference virus used in these studies. The recombinant virus was prepared through transfection of the recombinant NL4-3 proviral clone into 293T cells using Transit-293 Transfection Reagent from Mirus Bio LLC (Madison, Wis.). Supernatent was harvested after 2-3 days and the amount of virus present was titered in MT=2 cells using luciferase enzyme activity as a marker by measuring luciferase enzyme activity. Luciferase was quantitated using the EnduRen Live Cell Substrate from Promega (Madison, Wis.). Antiviral activities of compounds toward the recombinant virus were quantified by measuring luciferase activity in MT=2 cells infected for 4-5 days with the recombinant virus in the presence of serial dilutions of the compound.
The 50% effective concentration (EC50) was calculated by using the exponential form of the median effect equation where (Fa)=1/[1+(ED50/drug conc.)m] (Johnson V A, Byington RT. Infectivity Assay. In Techniques in HIV Research. ed. Aldovini A, Walker B D. 71-76. New York: Stockton Press.1990). The 50% inhibitory concentration (EC50) was calculated by using the exponential form of the median effect equation where percent inhibition=1/[1+(EC50/drug concentration)m], where m is a parameter that reflects the slope of the concentration-response curve.
(In general: In a reporter assay the amount or activity of a reporter protein is the signal.)

Data set [1] is described as follows: Compound cytotoxicity, XTT-based colorimetric assay. Format: cell-based. The note with it: human; uninfected MT2 cells, day 4, XTT. The procedure:
Compound cytotoxicity and the corresponding CC50 values were determined using the same protocol as described in the antiviral assay except that uninfected cells were used. Cytotoxicity was assessed on day 4 in uninfected MT2 cells by using a XTT (2,3-bis[2-Methoxy-4-nitro-5-sulfophenyl]-2H-tetrazolium-5-carboxyanilide inner salt)-based colorimetric assay (Sigma-Aldrich, St Louis, Mo.).

In the case of `CS(=O)(=O)Nc1nn(CC(F)F)c2c(-n3c([C@H](Cc4cc(F)cc(F)c4)NC(=O)Cn4nc(C5CC5)cc4C(F)F)nc4nc(-c5ccccc5F)ccc4c3=O)ccc(Cl)c12` (atropisomer, axis not shown; (P)) [Example 17, (S)-N-(1-((3P)-3-(4-chloro-1-(2,2-difluoroethyl)-3-(methylsulfonamido)-1H-indazol-7-yl)-7-(2-fluorophenyl)-4-oxo-3,4-dihydropyrido[2,3-d]pyrimidin-2-yl)-2-(3,5-difluorophenyl)ethyl)-2-(3-cyclopropyl-5-(difluoromethyl)-1H-pyrazol-1-yl)acetamide], the EC50 in the data set on recombinant NL4-3 virus is 0.52 nM. This molecule also showed a CC50 at 4 days in data set [1] of more than 500 nM.
For `CS(=O)(=O)Nc1nn(CC(F)F)c2c(-n3c([C@H](Cc4cc(F)cc(F)c4)NC(=O)Cn4nc(C5CC5)c5ccccc54)nc4nc(-c5ccccc5F)ccc4c3=O)ccc(Cl)c12` (atropisomer, axis not shown; (P)) [Example 18, (S)-N-(1-((3P)-3-(4-chloro-1-(2,2-difluoroethyl)-3-(methylsulfonamido)-1H-indazol-7-yl)-7-(2-fluorophenyl)-4-oxo-3,4-dihydropyrido[2,3-d]pyrimidin-2-yl)-2-(3,5-difluorophenyl)ethyl)-2-(3-cyclopropyl-1H-indazol-1-yl)acetamide], in that order: 0.17 nM and more than 500 nM.
The like results for `Cn1nc(NS(C)(=O)=O)c2c(Cl)ccc(-n3c([C@H](Cc4cc(F)cc(F)c4)NC(=O)C(C)(C)n4ccc(C5CC5)n4)nc4nc(-c5ccccc5F)ccc4c3=O)c21` (atropisomer, axis not shown; (P)) [Example 19, (S)-N-(1-((3P)-3-(4-chloro-1-methyl-3-(methylsulfonamido)-1H-indazol-7-yl)-7-(2-fluorophenyl)-4-oxo-3,4-dihydropyrido[2,3-d]pyrimidin-2-yl)-2-(3,5-difluorophenyl)ethyl)-2-(3-cyclopropyl-1H-pyrazol-1-yl)-2-methylpropanamide] were, in that order, 0.22 nM and more than 500 nM.
Take `CC(C)(C(=O)N[C@@H](Cc1cc(F)cc(F)c1)c1nc2nc(-c3ccccc3F)ccc2c(=O)n1-c1ccc(Cl)c2c(NS(C)(=O)=O)nn(CC(F)F)c12)n1ccc(C2CC2)n1` (atropisomer, axis not shown; (P)) [Example 20]: the EC50 with recombinant NL4-3 virus stood at 0.96 nM. In data set [1], the CC50 at 4 days was more than 500 nM.
For `CC(C)(C(=O)N[C@@H](Cc1cc(F)cc(F)c1)c1nc2nc(-c3ccccc3F)ccc2c(=O)n1-c1ccc(Cl)c2c(NS(=O)(=O)C3CC3)nn(CC(F)F)c12)n1ccc(C2CC2)n1` (atropisomer, axis not shown; (P)) [Example 21, (S)-N-(1-((3P)-3-(4-chloro-3-(cyclopropanesulfonamido)-1-(2,2-difluoroethyl)-1H-indazol-7-yl)-7-(2-fluorophenyl)-4-oxo-3,4-dihydropyrido[2,3-d]pyrimidin-2-yl)-2-(3,5-difluorophenyl)ethyl)-2-(3-cyclopropyl-1H-pyrazol-1-yl)-2-methylpropanamide], in that order: 2.3 nM and more than 500 nM.
Turning to `CC(C)(C(=O)N[C@@H](Cc1cc(F)cc(F)c1)c1nc2nc(-c3ccccc3F)ccc2c(=O)n1-c1ccc(Cl)c2c(NS(C)(=O)=O)nn(CC(F)(F)F)c12)n1ccc(C2CC2)n1` (atropisomer, axis not shown; (P)) [Example 22, (S)-N-(1-((3P)-3-(4-chloro-3-(methylsulfonamido)-1-(2,2,2-trifluoroethyl)-1H-indazol-7-yl)-7-(2-fluorophenyl)-4-oxo-3,4-dihydropyrido[2,3-d]pyrimidin-2-yl)-2-(3,5-difluorophenyl)ethyl)-2-(3-cyclopropyl-1H-pyrazol-1-yl)-2-methylpropanamide], in the data set with recombinant NL4-3 virus, the EC50 stood at 0.8 nM. This molecule showed a CC50 at 4 days in data set [1] of more than 500 nM.
For `CC(C)[C@@H](C(=O)N[C@@H](Cc1cc(F)cc(F)c1)c1nc2nc(-c3ccccc3F)ccc2c(=O)n1-c1ccc(Cl)c2c(NS(C)(=O)=O)nn(CC(F)(F)F)c12)n1ccc(C2CC2)n1` (atropisomer, axis not shown; (P)) [Example 23, N-((S)-1-((3P)-3-(4-chloro-3-(methylsulfonamido)-1-(2,2,2-trifluoroethyl)-1H-indazol-7-yl)-7-(2-fluorophenyl)-4-oxo-3,4-dihydropyrido[2,3-d]pyrimidin-2-yl)-2-(3,5-difluorophenyl)ethyl)-2-(3-cyclopropyl-1H-pyrazol-1-yl)-3-methylbutanamide], in that order: 0.21 nM and more than 500 nM.
For `CC(C)[C@H](C(=O)N[C@@H](Cc1cc(F)cc(F)c1)c1nc2nc(-c3ccccc3F)ccc2c(=O)n1-c1ccc(Cl)c2c(NS(=O)(=O)C3CC3)nn(CC(F)F)c12)n1ccc(C2CC2)n1` (atropisomer, axis not shown; (P)) [Example 24, N-((S)-1-((3P)-3-(4-chloro-3-(cyclopropanesulfonamido)-1-(2,2-difluoroethyl)-1H-indazol-7-yl)-7-(2-fluorophenyl)-4-oxo-3,4-dihydropyrido[2,3-d]pyrimidin-2-yl)-2-(3,5-difluorophenyl)ethyl)-2-(3-cyclopropyl-1H-pyrazol-1-yl)-3-methylbutanamide], in that order: 3.9 nM and more than 500 nM.
For `CC(C)[C@H](C(=O)N[C@@H](Cc1cc(F)cc(F)c1)c1nc2nc(-c3ccccc3F)ccc2c(=O)n1-c1ccc(Cl)c2c(NS(C)(=O)=O)nn(CC(F)(F)F)c12)n1ccc(C2CC2)n1` (atropisomer, axis not shown; (P)) [Example 26, N-((S)-1-((3P)-3-(4-chloro-3-(methylsulfonamido)-1-(2,2,2-trifluoroethyl)-1H-indazol-7-yl)-7-(2-fluorophenyl)-4-oxo-3,4-dihydropyrido[2,3-d]pyrimidin-2-yl)-2-(3,5-difluorophenyl)ethyl)-2-(3-cyclopropyl-1H-pyrazol-1-yl)-3-methylbutanamide], in that order: 1.9 nM and more than 500 nM.
Take `Cn1nc(NS(C)(=O)=O)c2c(Cl)ccc(-n3c([C@H](Cc4cc(F)cc(F)c4)NC(=O)Cn4nc(C5CC5)cc4C(F)F)nc4cc(-c5ccccc5F)ccc4c3=O)c21` (atropisomer, axis not shown; (P)) [Example 29, (S)-N-(1-((3P)-3-(4-chloro-1-methyl-3-(methylsulfonamido)-1H-indazol-7-yl)-7-(2-fluorophenyl)-4-oxo-3,4-dihydroquinazolin-2-yl)-2-(3,5-difluorophenyl)ethyl)-2-(3-cyclopropyl-5-(difluoromethyl)-1H-pyrazol-1-yl)acetamide]: in the data set on recombinant NL4-3 virus, the EC50 worked out at 3.1 nM. This molecule also returned a cytotoxic concentration (CC50) at 4 days in data set [1] of more than 500 nM.
The like results for `Cc1nccnc1-c1ccc2c(=O)n(-c3ccc(C)c4c(NS(C)(=O)=O)nn(CC(F)F)c34)c([C@H](Cc3cc(F)cc(F)c3)NC(=O)Cn3nc(C(F)F)c4c3C(F)(F)[C@@H]3C[C@H]43)nc2c1` (atropisomer, axis not shown; (P)) [Example 32, N-((S)-1-(3-(1-(2,2-difluoroethyl)-4-methyl-3-(methylsulfonamido)-1H-indazol-7-yl)-(3P)-7-(3-methylpyrazin-2-yl)-4-oxo-3,4-dihydroquinazolin-2-yl)-2-(3,5-difluorophenyl)ethyl)-2-((3bS,4aR)-3-(difluoromethyl)-5,5-difluoro-3b,4,4a,5-tetrahydro-1H-cyclopropa[3,4]cyclopenta[1,2-c]pyrazol-1-yl)acetamide] were, in that order, 0.063 nM and more than 500 nM.
For `O=C(Cn1nc(C(F)F)cc1C1CC1)N[C@@H](Cc1cc(F)cc(F)c1)c1nc2cc(-c3ccccn3)ccc2c(=O)n1-c1ccc(Cl)c2c(NS(=O)(=O)C3CC3)nn(CC(F)F)c12` (atropisomer, axis not shown; (P)) [Example 33, (S)-N-(1-((3P)-3-(4-chloro-3-(cyclopropanesulfonamido)-1-(2,2-difluoroethyl)-1H-indazol-7-yl)-4-oxo-7-(pyridin-2-yl)-3,4-dihydroquinazolin-2-yl)-2-(3,5-difluorophenyl)ethyl)-2-(5-cyclopropyl-3-(difluoromethyl)-1H-pyrazol-1-yl)acetamide], in that order: 0.79 nM and more than 500 nM.
With `O=C(Cn1nc(C(F)F)cc1C1CC1)N[C@@H](Cc1cc(F)cc(F)c1)c1nc2cc(-c3ncccn3)ccc2c(=O)n1-c1ccc(Cl)c2c(NS(=O)(=O)C3CC3)nn(CC(F)F)c12` (atropisomer, axis not shown; (P)) [Example 34, (S)-N-(1-((3P)-3-(4-chloro-3-(cyclopropanesulfonamido)-1-(2,2-difluoroethyl)-1H-indazol-7-yl)-4-oxo-7-(pyrimidin-2-yl)-3,4-dihydroquinazolin-2-yl)-2-(3,5-difluorophenyl)ethyl)-2-(5-cyclopropyl-3-(difluoromethyl)-1H-pyrazol-1-yl)acetamide], in the data set on recombinant NL4-3 virus, the EC50 is 0.4 nM. The molecule further displayed a CC50 at 4 days in data set [1] of more than 500 nM.

The EC50 is the concentration giving half of the maximal effect. Broadly, the CC50 is the concentration that lowers cell viability or growth by half.
